{"source": "patent US10251894B2", "about": "“Anticonvulsant activity of steroids” (The Regents of the University of California, priority 2012, dated 2019)", "key": {"[1]": {"tested_on": "PTZ (80 mg/kg, i.p.) seizures", "experiment": "Pentylenetetrazol (PTZ) seizure test", "type": "in vivo, mouse", "conditions": "mice", "description": "(§1) The mouse 6 Hz and pentylenetetrazol seizure models were used. Solutions of 5α,3α-P were made in 6% (0.5 and 1.5 mg/ml) sulfobutylether-β-cyclodextrin sodium salt (Captisol®) in 0.9% saline. The solutions were injected i.v. or i.m. (1, 2 and 30 min or 2 and 30 min, respectively) prior to administration of the 6 Hz electrical stimulus or PTZ (80 mg/kg, i.p.). […] Anticonvulsant activity was assessed by the delay in onset of seizure signs. Allopregnanolone plasma levels in rats were determined by LC-MS.\n(§2) Animals. Male NIH Swiss mice (22-30 g) served as subjects, and all procedures used in these studies were conducted in accordance with the University of California, Davis, Institutional Animal Care and Use Committee the Animal Care and Use policies in strict compliance with the Guide for the Care and Use of Laboratory Animals of the National Research Council (National Academy Press, Washington, D.C.; on the internet at nap.edu/readingroom/books/labrats/).\n(§3) Test Substances and Drug Administration. Allopregnanolone (3α-hydroxy-5α-pregnan-20-one; 5α,3α-P) was synthesized by a SAFC Pharma Inc, Madison, Wis., USA and Captisol (sulfobutylether-beta-cyclodextrin sodium salt) was provided by Ligand Pharmaceuticals, Inc. La Jolla, Calif., USA. Solutions of 5α,3α-P were made in 6% (0.5 and 1.5 mg/ml) or 24% ([…]) sulfobutylether-β-cyclodextrin sodium salt (Captisol®) in 0.9% saline. The volumes used for all injections were 10-20 ml/kg of body weight. In order to establish time courses for protection by 5α,3α-P in the 6-Hz electrical-stimulation (32 mA, 3 s) model, 5α,3α-P (0.5-6 mg/kg) was administered intravenously (i.v.), intramuscularly (i.m.), subcutaneously (s.c.) or orally (p.o.) before electrical stimulation. In the PTZ seizure test, 5α,3α-P or vehicle were administered i.v. or i.m. 1, 2 or 30 min before PTZ.\nThe time of onset of myoclonic jerks, clonus and tonic extension was recorded.\nData Analysis. Results are expressed as mean±S.E.M.; the significance of the difference in the responses of treatment groups with respect to control is based on one-way analysis of variance (ANOVA) followed by specific post hoc comparisons using Dunnett's test. Differences were considered statistically significant when the probability of error was less than 0.05 (p<0.05)."}, "[2]": {"experiment": "Plasma allopregnanolone after single i.v. injection (LC-MS)", "type": "in vivo, rat", "conditions": "rats", "description": "FIG. 10 illustrates a Time—concentration profile for plasma allopregnanolone (5α,3α-P) after single i.v. injection in rats. Rats bearing indwelling jugular catheters received single i.v. injection of 5α,3α-P or vehicle and serial blood samples were withdrawn at 1, 2, 10,15, 30, 60 and 120 min after injection. Plasma was assayed for 5α,3α-P by LC-MS. Each point represents at least 4 animals.\nas §1\nSurgery and Blood Collection. Male rats were implanted with indwelling jugular catheters as described (Baumann, et al., J Neurosci. (1998) 18: 9069-77). Animals were allowed to recover for at least one week. Experiments were carried out while the animal resided in its home cage. Rats received i.v. injection of vehicle or 5α,3α-P and serial blood samples were withdrawn into chilled tubes at 1, 2, 10,15, 30, 60 and 120 min after i.v. injection. 5α,3α-P and D4-5α,3α-P (internal standard) were extracted with SPE method from rat's plasma. The extracted 5α,3α-P and D4-5α,3α-P were quantified with ultra-performance liquid chromatography (UPLC)/Atmospheric-pressure chemical ionization (APCI)/tandem mass spectrometry (MS/MS)."}, "[3]": {"tested_on": "6 Hz electrical stimulus seizures", "experiment": "6-Hz seizure test (6-Hz electrical-stimulation, 32 mA, 3 s, model)", "type": "in vivo, mouse", "conditions": "mice", "description": "as §1, §2, §3\n6-Hz Seizure Test (Kaminski, et al., Epilepsia (2004) 45:1-4): 3-s corneal stimulation (200-μs duration, 32-mA monopolar rectangular pulses at 6 Hz) was delivered by a constant-current device (ECT Unit 5780; Ugo Basile, Comerio, Italy). […] The experimental end point was protection against the seizure: an animal was considered to be protected if it resumed its normal exploratory behavior within 10 s of stimulation."}, "[4]": {"conditions": "0.5 mg/kg i.v. 1 min before PTZ"}, "[5]": {"conditions": "i.v. bolus, 0.5 and 1.0 mg/kg pooled"}}, "data": [{"smiles": "CC(=O)[C@H]1CC[C@H]2[C@@H]3CC[C@H]4C[C@H](O)CC[C@]4(C)[C@H]3CC[C@]12C", "note": "[5α,3α-P, 3α-hydroxy-5α-pregnan-20-one]", "values": [{"measurement": "delay of seizure onset in the PTZ model", "setting": "[1]; 0.1 mg/kg i.v., all pretreatment times (1, 2 and 30 min)", "result": "failed to significantly delay seizure onset"}, {"measurement": "animals protected from tonic seizures", "setting": "[1]; 0.25 mg/kg i.m. 2 min before PTZ", "result": 0, "unit": "%"}, {"measurement": "animals protected from tonic seizures", "setting": "[1]; 0.5 mg/kg i.m. 2 min before PTZ", "result": 50, "unit": "%"}, {"measurement": "animals in which tonic seizures and mortality were prevented", "setting": "[1]; [4]", "result": 62.5, "unit": "%"}, {"measurement": "delay for myoclonic jerks and clonic seizures", "setting": "[1]; [4]", "result": "marked delay"}, {"measurement": "animals in which tonic seizures were prevented", "setting": "[1]; 0.5 mg/kg i.v. 2 min before PTZ", "result": 25, "unit": "%"}, {"measurement": "animals protected from tonic seizures", "setting": "[1]; 1.5 mg/kg i.m. 2 min before PTZ", "result": 100, "unit": "%"}, {"measurement": "protection against tonic seizures", "setting": "[1]; 1.5 mg/kg i.m. 30 min before PTZ", "result": "significant protection"}, {"measurement": "prevention of tonic seizures and mortality", "setting": "[1]; 1.5 mg/kg i.v. 1 and 2 min before PTZ", "result": "completely prevented"}, {"measurement": "protection against tonic seizures", "setting": "[1]; 1.5 mg/kg i.v. 30 min before PTZ", "result": "inactive"}, {"measurement": "mean peak plasma level (2 min)", "setting": "[2]; i.v. bolus 0.5 mg/kg", "result": 337, "unit": "ng/mL"}, {"measurement": "mean peak plasma level (2 min)", "setting": "[2]; i.v. bolus 1.0 mg/kg", "result": 746, "unit": "ng/mL"}, {"measurement": "pooled mean halftime, first component", "setting": "[2]; [5]", "result": 2, "unit": "min"}, {"measurement": "pooled mean halftime, second component", "setting": "[2]; [5]", "result": 22, "unit": "min"}, {"measurement": "duration of protective activity in the 6 Hz test", "setting": "[3]; i.m. 3 mg/kg", "result": "< 2", "unit": "h"}, {"measurement": "onset of protective activity in the 6 Hz test", "setting": "[3]; i.m. 3 mg/kg", "result": "≤ 2", "unit": "min"}, {"measurement": "protective activity in the 6 Hz test at 30 min", "setting": "[3]; i.v. 1.5 mg/kg, 30 min after infusion", "result": "inactive"}, {"measurement": "time after injection with protective activity in the 6 Hz test", "setting": "[3]; i.v. infusion 1.5 mg/kg", "result": "1 to 15", "unit": "min"}, {"measurement": "bioavailability after oral administration", "setting": "[3]; p.o. in the 6-Hz model, inferred from time course", "result": "Low bioavailability"}]}]}
